This note sets out measurements from patent publication US20140186329A1, “POLYPHENOL ANALOGS TO TREAT ISCHEMIA” (priority 2011, published 2014).

The subject of assay [1] is HT22 cells. Kind of assay: Maintenance of total GSH in the presence of glutamate. Format: cell-based, mouse. Conditions: derivative 1-10 μM, 5 mM glutamate, 24 hr. The method in brief:
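HT22 cells treated 24 hr with each derivative at 1-10 μM plus 5 mM glutamate, then extracts analysed for total GSH by chemical assay. Fisetin (10 μM) served as positive control.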

For assay [2], the system named is HT22 cells. Put plainly: In vitro ischemia assay (HT22 cell IAA assay, MTT). Format: cell-based, mouse. Conditions: for percent protection from IAA-induced cell death at 0.1 µM: HT-22, compound 100 nM. The method in brief: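 Mouse HT22 hippocampal cells in DMEM/7.5% DFCS exposed 2 hr to 20 μM iodoacetic acid with or without derivative, then 20 hr in IAA-free medium still containing derivative. Viability by MTT (2.5 μg/ml, 4 hr, 37 °C), absorbance at 570 nm.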

A short description of assay [3]: TEAC, ABTS decolorization assay. Conditions: relative to Trolox. A digest of the protocol:
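Compound in ethanol added to persulfate-generated ABTS radical cation (OD ~0.7 at 734 nm); absorbance decrease followed at 734 nm for 4 min. TEAC is the slope of percent absorbance inhibition versus concentration divided by the corresponding Trolox slope.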

Assay [4] deals with PC12 cells. Kind of assay: PC12 cell differentiation (neurite outgrowth). Format: cell-based. As to conditions: N2 medium, derivative 1-10 μM, 24 hr, visual inspection. A digest of the protocol: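 PC12 cells in N2 medium were exposed to derivatives (1-10 μM) for 24 hr, with Fisetin (10 μM) as positive control. Cells counted as positive if bearing ≥1 neurite longer than one cell body diameter; 100 cells scored in each of three fields per treatment.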

For assay [5], the system named is primary mouse cortical neurons. Put plainly: Primary cortical cell glutamate excitotoxicity assay. Format: cell-based. As to conditions: 10 μM glutamate, compound 100 nM. Here is the method: (§1) FIG. 5 illustrates pharmacological effects of Baicalein on cultured cells. (A) Trophic factor withdrawal. Primary cortical neurons are prepared from 18-day-old rat embryos, and cultured at low cell density 1×10^6/35 mm dish, in serum containing medium with Baicalein (10-10,000 nM), and viability assayed 2 days later using a live-dead assay. (B) Excitotoxicity assay was done with E14 mouse primary cortical neuron cultures. After 11 days of culture, cells were exposed to 10 μM glutamate for 10 min, followed by the addition of varying concentrations of Baicalein (0.2-5 μM). Cell viability was determined 24 hr later with a standard MTT assay. (C) PC12 cells were glucose-deprived then were incubates in the absence or presence of Baicalein. Cell viability was determined 24 hr later using the MTT assay. (D) RCG-5 nerve cells were treated with 30 μM iodoacetic acid for 2 hr in the presence or absence of 5-25 μM Baicalein. In some experiments, Baicalein was added 2 hr after the ischemic event. Cell survival (%) was measured after 24 hr by the MTT assay. Baicalein added before (□) or 2 hr after ([…]) ischemia.
Primary cultures of cortical neurons that die due to excitotoxicity were prepared as described previously. Briefly, BALB/c mouse embryo cortices were minced and treated with 0.1% trypsin for 20 min. After centrifugation, the cells are resuspended in 827 Neurobasal medium (Invitrogen) plus 10% fetal calf serum and are dissociated by repeated pipetting through a 1 mL blue Eppendorf pipette tip. Then the cells are plated at 1×10^5 cells per well in 96-well poly-L-lysine and laminin-coated microtiter plates (Becton Dickinson, Bedford, Mass., USA) in 827 Neurobasal plus 10% fetal calf serum and 20% glial growth-conditioned medium. Two days later the medium is aspirated and replaced by serum-free 827 Neurobasal medium plus 10 μg/mL cytosine arabinoside. The cultures are used without media change 11 days after plating and are essentially free of astrocytes. They are exposed to 10 μM glutamate followed by varying concentrations of the compounds. Cell viability is determined 24 h later using the fluorescent live/dead assay. Glial conditioned medium is prepared from confluent rat astrocyte cultures. The cells are washed twice with serum-free medium and incubated for 2 days in serum-free Neurobasal medium to produce the growth conditioned medium.
(1) ≧80% cell survival in mouse HT22 hippocampal cells in the presence of 20 μM iodoacetic acid (IAA) (in vitro ischemia model). See, Maher, et al., Brain Res. 2007, 1173:117-25. (2) ≧35% cell survival in primary mouse cortical neurons in the presence of 10 μM glutamate (in vitro excitotoxicity assay). See, Ishige, et al., Free Radic Biol Med, 2001, 30(4): p. 433-46.

Assay [6] has as its system PC12 cells. Kind of assay: Glucose starvation. Format: cell-based. As to conditions: MTT 24 hr. Here is the method:
as §1, with “ischemia. […] When these cells are starved for glucose, there is approximately 70% maximal survival in the presence of NGF. Baicalein promotes over 80% survival (FIG. 5C).” for “ischemia.”

[7] abbreviates: Mus musculus, HT-22, HT22 cells, 20 μM IAA for 2 hr, viability after 24 hr by MTT, read-out: EC50 in vitro ischemia.
[8] abbreviates: HT22 cells, 20 μM IAA, read-out: HT22 Cell IAA assay EC50.

pEC50: −log10 of the molar value. Where two headings read alike, the source gives them in different places.

The term pEC50 denotes the negative decadic logarithm of the EC50, by convention in mol/L. As to `O=c1cc(-c2ccc(N3CCCC3)cc2)oc2c1ccc1ccccc12` [CMS-115, 2-(4-(pyrrolidin-1-yl)phenyl)-4H-benzo[h]chromen-4-one], the “GSH (ability to maintain GSH)” value in the assay with HT22 cells [1] is “no”. Also, in the assay on HT22 cells [2] (setting [7]), the pEC50 is 6.70. In assay [3], this molecule came in with a TEAC of 0.03. Moreover, the “PC12 diff'n (ability to induce PC12 cell differentiation)” value with PC12 cells [4] is on record as “no”.
`Cc1cc2oc(-c3ccc(N4CCCC4)cc3)cc(=O)c2cc1C` [CMS-116, 6,7-dimethyl-2-(4-(pyrrolidin-1-yl)phenyl)-4H-chromen-4-one]: in the assay on HT22 cells [1], the “GSH (ability to maintain GSH)” value is recorded as “no”. Further, the pEC50 in the assay on HT22 cells [2] (setting [7]) was less than 6.30. The molecule further gave a TEAC in assay [3] of 0.12. In addition, the “PC12 diff'n (ability to induce PC12 cell differentiation)” value with PC12 cells [4] is on record as “no”.
Consider `Cc1cc2oc(-c3ccc(N(C)C)cc3)cc(=O)c2cc1C` [CMS-119, 2-(4-(dimethylamino)phenyl)-6,7-dimethyl-4H-chromen-4-one], for which the “GSH (ability to maintain GSH)” value in the assay with HT22 cells [1] is on record as “no”. The negative-log EC50 (pEC50) in the assay with HT22 cells [2] (setting [7]) was less than 6.30. For the same molecule, in assay [3], the TEAC is on record as 0. The “PC12 diff'n (ability to induce PC12 cell differentiation)” value with PC12 cells [4] is reported as “no”.
As to `CN(C)c1ccc(-c2cc(=O)c3ccc4ccccc4c3o2)cc1` [CMS-120, 2-(4-(dimethylamino)phenyl)-4H-benzo[h]chromen-4-one], the “GSH (ability to maintain GSH)” value with HT22 cells [1] was “no”. Besides, the negative-log EC50 (pEC50) with HT22 cells [2] (setting [7]) is 6.60. The TEAC in assay [3] worked out at 0.24. In the assay on PC12 cells [4], the “PC12 diff'n (ability to induce PC12 cell differentiation)” value was “no”.
Regarding `O=c1cc(-c2cc(O)c(O)c(O)c2)oc2ccccc12` [PM-008, 3′,4′,5′-trihydroxyflavone], the negative-log EC50 (pEC50) with HT22 cells [2] (setting [8]) is 7.38. Also, the percent protection from IAA-induced cell death at 0.1 µM with HT22 cells [2] (Mus musculus, 20 μM IAA) came out at 88%. Moreover, the “Primary Cortical Cell assay-Glutamate (% protection @ 100 nM)” value in assay [5] amounted to 100%.
Taken in the same sequence, the figures for `Cc1ccc2oc(-c3ccc(O)c(O)c3)c(O)c(=O)c2c1` [PM-010, 2-(3,4-dihydroxyphenyl)-3-hydroxy-6-methyl-4H-chromen-4-one] were 7.34, 89% and 65%.
Turning to `CCCc1ccc2oc(-c3ccc(O)c(O)c3)c(O)c(=O)c2c1` [PM-012, 2-(3,4-dihydroxyphenyl)-3-hydroxy-6-propyl-4H-chromen-4-one], the pEC50 in the assay on HT22 cells [2] (setting [8]) was 7.21; in the assay on HT22 cells [2] (Mus musculus, HT-22, HT22 cells, 20 μM IAA, read-out: HT22 Cell IAA assay EC50), 7.42. The percent protection from IAA-induced cell death at 0.1 µM in the assay with HT22 cells [2] (Mus musculus, 20 μM IAA) worked out at 80%. Besides, in assay [5], the “Primary Cortical Cell assay-Glutamate (% protection @ 100 nM)” value is listed as 82%.
In the case of `CCc1ccc2oc(-c3ccc(O)c(O)c3)c(O)c(=O)c2c1` [PM-013, 2-(3,4-dihydroxyphenyl)-6-ethyl-3-hydroxy-4H-chromen-4-one], the negative logarithm of the EC50 (pEC50) in the assay with HT22 cells [2] (setting [8]) was 7.21. Further, the percent protection from IAA-induced cell death at 0.1 µM in the assay on HT22 cells [2] (Mus musculus, 20 μM IAA) is 81%. Besides, the “Primary Cortical Cell assay-Glutamate (% protection @ 100 nM)” value in assay [5] was 51%.
In the case of “NGF: NGF, comparator in the PC12 glucose starvation assay”, the “survival of glucose-starved cells” value with PC12 cells [6] is “approximately 70%”.
